Laboratory results taken from ChEMBL document CHEMBL1153535, “Nitazoxanide kills replicating and nonreplicating Mycobacterium tuberculosis and evades resistance” (J Med Chem, 2009).
In brackets after ≈: the same amount, converted by molar mass.

Columns and labels:
[1] = system: Mycobacterium tuberculosis; test: Antimycobacterial activity against replicating Mycobacterium tuberculosis H37Rv at 62 ug/mL assessed as reduction of log10CFU/mL after 4 days; format: functional
Cryptosporidium = test: Antimicrobial activity against Cryptosporidium; format: functional
[2] = system: Mycobacterium tuberculosis; test: Antimycobacterial activity against non-replicating Mycobacterium tuberculosis H37Rv at 125 ug/mL assessed as reduction of log10CFU/mL after 4 days relative to control; format: functional
[3] = system: Mycobacterium tuberculosis; test: Antimycobacterial activity against Mycobacterium tuberculosis H37Rv after 8 days in absence of BSA; format: functional; conditions: 192 h
[4] = system: Mycobacterium tuberculosis; test: Antimycobacterial activity against replicating Mycobacterium tuberculosis H37Rv at 125 ug/mL assessed as reduction of log10CFU/mL after 4 days relative to control; format: functional
[5] = system: Mycobacterium tuberculosis; test: Antimycobacterial activity against Mycobacterium tuberculosis H37Rv in 7H9 liquid medium after 7 days; format: functional; conditions: 168 h
Giardia = test: Antimicrobial activity against Giardia; format: functional, organism-based
[6] = system: Mycobacterium tuberculosis; test: Antimycobacterial activity against Mycobacterium tuberculosis H37Rv in 7H11 solid medium after 7 days; format: functional; conditions: 168 h
[7] = system: Mycobacterium tuberculosis; test: Antimycobacterial activity against non-replicating Mycobacterium tuberculosis H37Rv at 62 ug/mL assessed as reduction of log10CFU/mL after 6 days relative to control; format: functional
[8] = system: Mycobacterium tuberculosis; test: Antimycobacterial activity against Mycobacterium tuberculosis H37Rv after 8 days in presence of 0.04 to 5 mg/mL of BSA; format: functional; conditions: 192 h
[9] = system: Mycobacterium tuberculosis; test: Antimycobacterial activity against replicating Mycobacterium tuberculosis H37Rv at 62 ug/mL assessed as reduction of log10CFU/mL after 10 days; format: functional
[10] = system: Mycobacterium tuberculosis; test: Antimycobacterial activity against replicating Mycobacterium tuberculosis H37Rv at 62 ug/mL assessed as reduction of log10CFU/mL; format: functional, organism-based; conditions: TDE = time-dependent effect
[11] = Cmax in human plasma at 500 mg, po; format: ADME, organism-based; design: dose 500 mg, route oral

| SMILES | Activity [1] | MIC (Cryptosporidium) [µg/mL] | Activity [2] | MIC [3] [µg/mL] | Activity [4] | MIC [5] [µg/mL] | IC50 (Giardia) [µg/mL] | MIC [6] [µg/mL] | Activity [7] | MIC [8] [µg/mL] | Activity [9] | Activity [10] | Cmax [11] [ng/mL] |
| --- | --- | --- | --- | --- | --- | --- | --- | --- | --- | --- | --- | --- | --- |
| CC(=O)Oc1ccccc1C(=O)Nc1ncc([N+](=O)[O-])s1 [NITAZOXANIDE] | 1 | 10 (≈ 32.5 µM) | 6 | 1 (≈ 3.25 µM) | 2 | 16 (≈ 52.1 µM) | 2.5 (≈ 8.14 µM) | 16 (≈ 52.1 µM) | >=5 | 16 | 3.5 | tde |  |
| O=C(Nc1ncc([N+](=O)[O-])s1)c1ccccc1O [TIZOXANIDE] |  |  |  |  |  | 16 (≈ 60.3 µM) |  |  |  |  |  |  | 10600 |
